Assay results published in article PMC6508677, “Identification of druggable small molecule antagonists of the Plasmodium falciparum hexose transporter PfHT and assessment of ligand access to the glucose permeation pathway via FLAG-mediated protein engineering” (PLoS ONE, 2019).
“And” between values parts separate entries of the source, which are not always exact repeats. Identical values can stand only once. Like-named read-outs stand apart in the source and are kept apart here.

Molecular target: T1, PfHT (Plasmodium falciparum, UniProt Q7KWJ5)
T1 sequence (Q7KWJ5 1-504): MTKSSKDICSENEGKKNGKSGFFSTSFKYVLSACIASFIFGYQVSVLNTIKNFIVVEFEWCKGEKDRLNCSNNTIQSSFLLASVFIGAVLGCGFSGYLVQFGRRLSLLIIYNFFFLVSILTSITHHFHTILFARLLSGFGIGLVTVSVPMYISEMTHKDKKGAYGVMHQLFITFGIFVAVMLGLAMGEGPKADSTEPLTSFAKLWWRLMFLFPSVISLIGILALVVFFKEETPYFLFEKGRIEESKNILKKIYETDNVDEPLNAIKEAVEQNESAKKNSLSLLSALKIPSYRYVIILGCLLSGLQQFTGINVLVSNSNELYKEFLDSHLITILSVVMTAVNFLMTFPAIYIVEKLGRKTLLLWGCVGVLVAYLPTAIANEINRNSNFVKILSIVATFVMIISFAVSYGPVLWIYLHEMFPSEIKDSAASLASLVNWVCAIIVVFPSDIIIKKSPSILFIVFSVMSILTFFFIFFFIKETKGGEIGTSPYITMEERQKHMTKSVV
Assay: 2-DG uptake by HEK293 cells overexpressing PfHT
Type: cell-based
Parameters: expressed in transfected cells; host or cells: HEK293 (HEK293-FLIP, native hGLUT1 knocked down by shRNA)
Conditions: for Maximum Inhibition (%): 2-DG uptake, PfHT cell line; for inhibition at 5 µM: read-out: % Inhibition of 2-DG uptake vs vehicle
Source text: Generation of HEK293 cells overexpressing PfHT and human GLUTs 1–4 were described elsewhere. Briefly, HEK293 cells were transfected with pcDNA3.1 FLII12Pglu-7006 (Addgene), containing the fluorescence resonance energy transfer (FRET) glucose sensor (HEK293-FLIP) and PfHT, human GLUT1 (hGLUT1), hGLUT2, hGLUT3, hGLUT4, hGLUT5 or hGLUT8 using Optifect (Life Technologies) according to manufacturer’s specifications. To increase retention of GLUT8 at the plasma membrane, the dileucine sorting signal E^7E^8XXXLL was modified to R^7R^8XXXLL as described in [17]. Stable transfectants were selected for G418 and hygromycin resistance to select for FRET sensor and hexose transporter, respectively. HEK293-FLIP cells were also used to generate cells stably transfected with FLAG-tagged PfHT (FTPfHT). FLAG tag ([…]) followed by a triple glycine linker and a tobacco etch virus (TEV) protease site (ENLYFQS) followed by a triple glycine linker was added to the N-terminus of PfHT via PCR [18] using Phusion Hot Start II High-Fidelity DNA Polymerase (Fisher Scientific). Single clones were selected by comparing their abilities to transport glucose as assayed via FRET and radiolabeled hexose uptake. In all cell lines, except for HEK293 cells overexpressing hGLUT1 and hGLUT5, native hGLUT1 was knocked down using shRNA as described elsewhere. Transcript levels of the individual GLUTs expressed in each cell line are as described in [13, 15] and in S1 Fig.
Glucose uptake by P. falciparum was performed essentially as described. P. falciparum strain 3D7 was cultured in 100 mm tissue culture dishes (Techno Plastic Products) in a 2% suspension of human erythrocytes and RPMI 1640 medium until reaching > 7.5% parasitemia. Cells were pelleted via centrifugation and resuspended in RPMI 1640 medium. To determine the uptake of radiolabeled glucose into the parasite, parasites were isolated from infected erythrocytes by permeablization with saponin (0.05 w/v), followed by centrifugation, aspiration of supernatant and washing of the pellet 3X with saline solution (135 mM NaCl, 2 mM KCl, 25 mM HEPES, 0.2 mM glucose and 1 mM MgCl2; pH 7.1) to remove cellular debris. WU-1 or DMSO vehicle were added to 100 μl parasites (resuspended in saline) 5 min prior to the addition of 100 μl [^14C]2-DOG (0.2- μCi/ml final concentration). 2-DG uptake was stopped after 2 min by layering the entire reaction over 300 μl of an oil mixture (5:4 mix of dibutyl phthalate / dinonyl phthalate) in Eppendorf tubes and centrifuged at 15,850 × g for 2 mins. The ratio of the estimated intracellular concentration of radiolabel relative to the extracellular concentration were calculated as described. Uptake of radiolabeled hexose into HEK293 cells was measured in glucose-free HBSS as described previously. Briefly, cells were plated at 400,000 cells/well overnight at 37°C in 24-well plates pre-treated with PEI. After 30-min incubation at 37°C in glucose-free HBSS in the presence of vehicle or increasing concentrations of compound, 2-DG uptake was measured in glucose-free HBSS for 4 min at 37°C. Cultures were washed in ice-cold 1X PBS and lysed in 0.1% Triton X-100 in 1X PBS. Radiolabeled hexose uptake was determined by liquid scintillation counting (Ultima Gold, Thermo Fisher) and normalized to total protein per well. Uptake data are plotted as percent uptake relative to vehicle-treated cells. Kinetic analyses were performed using the indicated concentrations of substrate and WU-1, with quenching of uptake after 1 min incubation. Incubation times had been previously determined as being in the linear range of time-dependent radiolabeled hexose uptake (2 min for 2-DG uptake into freed parasites; 2 and 4 min for D-Frc and 2-DG uptake HEK cell lines, respectively). Data were fit by least squares nonlinear regression analysis using GraphPad Prism 6.0 software.

[1] = HEK293, 4 min, read-out: 2-DG Uptake AVE, PfHT, concentration 0.001 µM, Expt 1-3
[2] = HEK293, 4 min, read-out: 2-DG uptake (percent uptake relative to vehicle), AVE, PfHT, 0.001 µM compound
[3] = HEK293, 4 min, read-out: 2-DG uptake (percent uptake relative to vehicle), AVE, PfHT, 0.09375 µM compound
[4] = HEK293, 4 min, read-out: 2-DG uptake (percent uptake relative to vehicle), AVE, PfHT, 0.1875 µM compound
[5] = HEK293, 4 min, read-out: 2-DG uptake (percent uptake relative to vehicle), AVE, PfHT, 0.3125 µM compound (0.313 in Fig 1 sheet for WU-1)
[6] = HEK293, 4 min, read-out: 2-DG uptake (percent uptake relative to vehicle), AVE, PfHT, 0.375 µM compound
[7] = HEK293, 4 min, read-out: 2-DG uptake (percent uptake relative to vehicle), AVE, PfHT, 0.625 µM compound
[8] = HEK293, 4 min, read-out: 2-DG uptake (percent uptake relative to vehicle), AVE, PfHT, 1.25 µM compound
[9] = HEK293, 4 min, read-out: 2-DG uptake (percent uptake relative to vehicle), AVE, PfHT, 2.5 µM compound
[10] = HEK293, 4 min, read-out: 2-DG uptake (percent uptake relative to vehicle), AVE, PfHT, 5 µM compound
[11] = HEK293, 4 min, read-out: 2-DG uptake (percent uptake relative to vehicle), AVE, PfHT, 10 µM compound
[12] = HEK293, 4 min, read-out: 2-DG uptake (percent uptake relative to vehicle), AVE, PfHT, 20 µM compound
[13] = HEK293, 4 min, read-out: 2-DG uptake (percent uptake relative to vehicle), AVE, PfHT, 40 µM compound
[14] = IC50 (µM), PfHT, 2-DG Uptake, single experiments Expt 1-3
[15] = IC50 for inhibition of 2-DG uptake, HEK293 cells overexpressing PfHT, mean/reported value
[16] = IC50 for inhibition of 2-DG uptake, individual experiments, HEK293 PfHT, Expt 1-3

## Cc1ccc(S(=O)(=O)CCNC(=O)c2c(-c3c(Cl)cccc3Cl)noc2C)cc1 [WU-1, 3-(2,6-dichlorophenyl)-5-methyl-N-[2-(4-methylbenzenesulfonyl)ethyl]-1,2-oxazole-4-carboxamide]
  Maximum Inhibition (%): 93.2%
[1]
  remaining activity at 0.001 µM: 100%
HEK293, 4 min, read-out: 2-DG Uptake AVE, PfHT, concentration 0.09375 µM
  remaining activity at 0.09375 µM: 91.6%
HEK293, 4 min, read-out: 2-DG Uptake AVE, PfHT, concentration 0.1875 µM
  remaining activity at 0.1875 µM: 88.9%
HEK293, 4 min, read-out: 2-DG Uptake AVE, PfHT, concentration 0.3125 µM
  remaining activity at 0.3125 µM: 90.1%
HEK293, 4 min, read-out: 2-DG Uptake AVE, PfHT, concentration 0.375 µM
  remaining activity at 0.375 µM: 85.8%
HEK293, 4 min, read-out: 2-DG Uptake AVE, PfHT, concentration 0.625 µM
  remaining activity at 0.625 µM: 85.2%
HEK293, 4 min, read-out: 2-DG Uptake AVE, PfHT, concentration 0.75 µM
  remaining activity at 0.75 µM: 76.1%
HEK293, 4 min, read-out: 2-DG Uptake AVE, PfHT, concentration 1.25 µM
  remaining activity at 1.25 µM: 64.5%
HEK293, 4 min, read-out: 2-DG Uptake AVE, PfHT, concentration 2.5 µM
  remaining activity at 2.5 µM: 70.2%
HEK293, 4 min, read-out: 2-DG Uptake AVE, PfHT, concentration 5 µM
  remaining activity at 5 µM: 49.8%
HEK293, 4 min, read-out: 2-DG Uptake AVE, PfHT, concentration 10 µM
  remaining activity at 10 µM: 34.7%
HEK293, 4 min, read-out: 2-DG Uptake AVE, PfHT, concentration 20 µM
  remaining activity at 20 µM: 21.1%
HEK293, 4 min, read-out: 2-DG Uptake AVE, PfHT, concentration 40 µM
  remaining activity at 40 µM: 20.4%
HEK293, 4 min, read-out: 2-DG Uptake AVE, PfHT, concentration 80 µM
  remaining activity at 80 µM: 8.82%
HEK293, 4 min, read-out: 2-DG Uptake AVE, PfHT, concentration 160 µM
  remaining activity at 160 µM: 5.63%
HEK293, 4 min, read-out: 2-DG Uptake AVE, PfHT, concentration 225 µM
  remaining activity at 225 µM: 5.69%
[2]
  remaining activity at 0.001 µM: 100%
[3]
  remaining activity at 0.09375 µM: 91.6%
[4]
  remaining activity at 0.1875 µM: 88.9%
[5]
  remaining activity at 0.3125 µM: 90.2%
[6]
  remaining activity at 0.375 µM: 85.8%
[7]
  remaining activity at 0.625 µM: 85.3%
HEK293, 4 min, read-out: 2-DG uptake (percent uptake relative to vehicle), AVE, PfHT, 0.75 µM compound
  remaining activity at 0.75 µM: 76.1%
[8]
  remaining activity at 1.25 µM: 80.1%
[9]
  remaining activity at 2.5 µM: 68.2%
[10]
  remaining activity at 5 µM: 53.2%
[11]
  remaining activity at 10 µM: 42.3%
[12]
  remaining activity at 20 µM: 30.2%
[13]
  remaining activity at 40 µM: 18.7%
HEK293, 4 min, read-out: 2-DG uptake (percent uptake relative to vehicle), AVE, PfHT, 80 µM compound
  remaining activity at 80 µM: 9.91%
HEK293, 4 min, read-out: 2-DG uptake (percent uptake relative to vehicle), AVE, PfHT, 160 µM compound
  remaining activity at 160 µM: 5.69%
HEK293, 4 min, read-out: 2-DG uptake (percent uptake relative to vehicle), AVE, PfHT, 225 µM compound
  remaining activity at 225 µM: 6.88%
HEK293, 4 min
  inhibition at 5 µM: 50.2%
[14]
  IC50: 4.6 µM and 6.6 µM and 6.34 µM
[15]
  IC50: 5.8 µM and 5.85 µM
[16]
  IC50: 4.6 µM and 6.6 µM and 6.34 µM
PfHT, 0.001 µM compound
  2-DG uptake (percent uptake relative to vehicle), AVE: 100.00
PfHT, concentration 0.001 µM, Expt 1-3
  2-DG Uptake AVE: 100.00
Reference value
  Selectivity Index, 2-DG, PfHT line itself: 1.0

## COc1c(Br)cc([N+](=O)[O-])c(OC)c1C(=O)NC(=O)Nc1c(C)cccc1Cl [WU-2, 3-(3-bromo-2,6-dimethoxy-5-nitrobenzoyl)-1-(2-chloro-6-methylphenyl)urea]
  Maximum Inhibition (%): 84.4%
[2]
  remaining activity at 0.001 µM: 97.7%
[3]
  remaining activity at 0.09375 µM: 96%
[4]
  remaining activity at 0.1875 µM: 93.9%
[5]
  remaining activity at 0.3125 µM: 85%
[6]
  remaining activity at 0.375 µM: 79.7%
[7]
  remaining activity at 0.625 µM: 75.7%
[8]
  remaining activity at 1.25 µM: 68.5%
[9]
  remaining activity at 2.5 µM: 62.4%
[10]
  remaining activity at 5 µM: 50.6%
[11]
  remaining activity at 10 µM: 39.9%
[12]
  remaining activity at 20 µM: 26.3%
[13]
  remaining activity at 40 µM: 17.3%
HEK293, 4 min
  inhibition at 5 µM: 47.9%
[15]
  IC50: 4.2 µM and 4.15 µM
[16]
  IC50: 3.01 µM and 3.83 µM and 5.61 µM

## C=C1[C@@H](C)[C@H]2[C@H](Cc3ccccc3)NC(=O)[C@]23OC(=O)/C=C/[C@H](O)CCC[C@@H](C)C/C=C/[C@H]3[C@@H]1O [CB, cytochalasin B]
AVE IC50 (µM), PfHT, 2-DG Uptake, average of Expt 1-3
  IC50: 10.9 µM
[1]
  remaining activity at 0.001 µM: 100%
HEK293, 4 min, read-out: 2-DG Uptake AVE, PfHT, concentration 0.3906 µM
  remaining activity at 0.3906 µM: 95.3%
HEK293, 4 min, read-out: 2-DG Uptake AVE, PfHT, concentration 0.7812 µM
  remaining activity at 0.7812 µM: 96.2%
HEK293, 4 min, read-out: 2-DG Uptake AVE, PfHT, concentration 1.56 µM
  remaining activity at 1.56 µM: 90.6%
HEK293, 4 min, read-out: 2-DG Uptake AVE, PfHT, concentration 3.125 µM
  remaining activity at 3.125 µM: 71%
HEK293, 4 min, read-out: 2-DG Uptake AVE, PfHT, concentration 6.25 µM
  remaining activity at 6.25 µM: 64.5%
HEK293, 4 min, read-out: 2-DG Uptake AVE, PfHT, concentration 12.5 µM
  remaining activity at 12.5 µM: 47.3%
HEK293, 4 min, read-out: 2-DG Uptake AVE, PfHT, concentration 25 µM
  remaining activity at 25 µM: 30.6%
HEK293, 4 min, read-out: 2-DG Uptake AVE, PfHT, concentration 50 µM
  remaining activity at 50 µM: 22.1%
HEK293, 4 min, read-out: 2-DG Uptake AVE, PfHT, concentration 100 µM
  remaining activity at 100 µM: 12.7%
HEK293, 4 min, read-out: 2-DG Uptake AVE, PfHT, concentration 200 µM
  remaining activity at 200 µM: 7.58%
HEK293, 4 min, read-out: 2-DG Uptake AVE, PfHT, concentration 400 µM
  remaining activity at 400 µM: 4.31%
[14]
  IC50: 10.3 µM and 12.6 µM and 9.78 µM
[15]
  IC50: 10.9 ± 0.9 µM
